Active and inactive are the calls of the source. The rule behind the calls is not given here.
Assays:
[1] = biological target: T1, Replicase polyprotein 1ab (Severe acute respiratory syndrome coronavirus 2, UniProt P0DTD1); assay: Inhibition of full-length SARS CoV-2 MPro expressed in Escherichia coli BL21(DE3) using Boc-Abu-Tle-Leu-Gln-AMC as substrate incubated for 10 mins by fluorescence based assay
[2] = tested on: Severe acute respiratory syndrome-related coronavirus; assay: Inhibition of SARS CoV-1 MPro using Boc-Abu-Tle-Leu-Gln-AMC as substrate incubated for 10 mins by fluorescence based assay
[3] = biological target: Replicase polyprotein 1ab (Severe acute respiratory syndrome coronavirus 2) (UniProt P0DTD1); assay: Inhibition of His-tagged recombinant SARS CoV-2 MPro expressed in Escherichia coli BL21(DE3) using Boc-Abu-Tle-Leu-Gln-AMC as substrate at 1 uM incubated for shorter period by fluorescence based assay relative to control
[4] = biological target: Replicase polyprotein 1ab (Severe acute respiratory syndrome coronavirus 2) (UniProt P0DTD1); assay: Inhibition of His-tagged recombinant SARS CoV-2 MPro expressed in Escherichia coli BL21(DE3) using Boc-Abu-Tle-Leu-Gln-AMC as substrate at 1 uM incubated for >6 hrs by fluorescence based assay relative to control
[5] = Stability of compound in 1 mM GSH at 100 uM incubated for 1 hr by HPLC-ESI-MS analysis; assay type: ADME
[6] = Stability of compound in 1 mM GSH at 10 uM incubated for 1 hr by HPLC-ESI-MS analysis; assay type: ADME
[7] = Inhibition of MERS CoV MPro using Boc-Abu-Tle-Leu-Gln-AMC as substrate incubated for 10 mins by fluorescence based assay; set-up: species or system Middle East respiratory syndrome-related coronavirus
[8] = Stability of compound in 1 mM GSH assessed as compound remaining at 100 uM incubated for 1 hr by HPLC-ESI-MS analysis; assay type: ADME; details: 1 mM GSH solution, read-out: Stability
SARS-CoV-2 = assay: microbe, parasite or virus in culture; details: Severe acute respiratory syndrome coronavirus 2, Calu-3
Calu-3 [9] = assay: Cytotoxicity against human Calu-3 cells at 10 uM; assay type: toxicity, cell-based; details: calu-3, 10 µM
[10] = Stability of compound in 1 mM GSH assessed as compound remaining at 10 to 100 uM incubated for 1 hr by HPLC-ESI-MS analysis; assay type: ADME; details: 1 mM GSH solution, dose 10-100 µM, read-out: Stability
[11] = biological target: T1, Replicase polyprotein 1ab; assay: Inhibition of SARS CoV-2 MPro
[12] = biological target: Replicase polyprotein 1ab (Severe acute respiratory syndrome coronavirus 2) (UniProt P0DTD1); assay: Inhibition of full-length SARS CoV-2 MPro expressed in Escherichia coli BL21(DE3) using Boc-Abu-Tle-Leu-Gln-AMC as substrate at 1 uM incubated for 10 mins by fluorescence based assay relative to control
Calu-3 [13] = assay: (§1) Cytotoxicity against human Calu-3 cells; assay type: toxicity, cell-based; details: calu-3, 10 µM, dose 10 µM
[14] = as §1; assay type: toxicity, cell-based; details: Calu-3 cells

## O=C(Oc1cncc(Br)c1)c1ccc(Cl)c(Cl)c1
[1]
  IC50: 37.5 nM

## COc1ccccc1C(=O)Oc1cncc(Cl)c1
[2]
  inhibition: inactive
[1]
  IC50: 264 nM

## O=C(Oc1cncc(Cl)c1)c1cccc(F)c1
[1]
  IC50: 46.4 nM

## O=C(Oc1cncc(Cl)c1)c1ccc(Cl)cc1F
[2]
  inhibition: inactive
[3]
  inhibition: 100%
[1]
  IC50: 45.7 nM

## O=C(Oc1cncc(Cl)c1)c1ccccc1F
[2]
  inhibition: Active
[1]
  IC50: 25.9 nM

## O=C(Oc1cncc(Br)c1)c1ccc(OCc2ccccc2)cc1F
[1]
  IC50: 232 nM
[4]
  inhibition: 100%

## COc1cccc(C(=O)Oc2cncc(Br)c2)c1
[1]
  IC50: 19.9 nM

## COc1c(Cl)ccc(C(=O)Oc2cncc(Cl)c2)c1F
[1]
  IC50: 70.7 nM

## O=C(Oc1cncc(Cl)c1)c1cc(F)cc(F)c1
[1]
  IC50: 38.3 nM

## N=C(N)Nc1ccc(C(=O)Oc2cncc(Cl)c2)cc1
[1]
  IC50: 65.9 nM

## O=C(Oc1cncc(Br)c1)c1ccc(I)cc1F
[1]
  IC50: 33.5 nM
[5]
  Stability: Stable

## O=C(Oc1cncc(Cl)c1)c1cc(Cl)cc(Cl)c1
[1]
  IC50: 133 nM

## O=C(Oc1cncc(Cl)c1)c1ccc(Cl)cc1
[1]
  IC50: 218 nM

## COc1cccc(C(=O)Oc2cncc(Cl)c2)c1
[2]
  inhibition: Active
[6]
  Stability: Unstable
[1]
  IC50: 5.13 nM
[7]
  IC50: 112 nM

## O=C(Oc1cncc(Br)c1)c1cccc(Cl)c1
[1]
  IC50: 50.5 nM

## COc1ccc(C(=O)Oc2cncc(Cl)c2)c(OC)c1
[1]
  IC50: 1670 nM
[5]
  Stability: Stable

## O=C(Oc1cncc(Cl)c1)c1cccc2[nH]ccc12
[6]
  Stability: Stable
[8]
  remaining at 1 h, 100 µM: > 70%

## Cc1cc(Cl)ccc1C(=O)Oc1cncc(Cl)c1
[1]
  IC50: 3400 nM

## O=C(Oc1cncc(Cl)c1)c1ccccc1Cl
[1]
  IC50: 60.4 nM

## O=C(Oc1cncc(Cl)c1)c1ccc(F)cc1
[1]
  IC50: 119 nM

## COc1ccc(C(=O)Oc2cncc(Cl)c2)cc1Cl
[6]
  Stability: Unstable
[1]
  IC50: 247 nM
[5]
  Stability: Stable

## O=C(Oc1cncc(Br)c1)c1ccccc1F
[1]
  IC50: 10.7 nM

## O=C(Oc1cncc(Cl)c1)c1cccc(Cl)c1Cl
[2]
  inhibition: Active
[1]
  IC50: 126 nM

## COc1ccc(C(=O)Oc2cncc(Br)c2)cc1
SARS-CoV-2
  EC50: 1860 nM
[1]
  IC50: 96.3 nM
[4]
  inhibition: 100%
Calu-3 [9]
  Activity: Non-Toxic
[5]
  Stability: Stable

## Nc1ccc(C(=O)Oc2cncc(Cl)c2)c(F)c1
[1]
  IC50: 943 nM
[5]
  Stability: Stable

## O=C(Oc1cncc(Cl)c1)c1ccncc1
[1]
  IC50: 725 nM

## CNc1ccc(C(=O)Oc2cncc(Cl)c2)cc1
[10]
  remaining at 1 h, up to 100 µM: 50%
[1]
  IC50: 3940 nM
[5]
  Stability: Stable

## O=C(Oc1cncc(Br)c1)c1ccccc1Cl
[1]
  IC50: 39.2 nM

## COc1ccc(F)c(C(=O)Oc2cncc(Cl)c2)c1F
[1]
  IC50: 30.3 nM

## O=C(Oc1cncc(Cl)c1)c1ccc(I)cc1F
[2]
  inhibition: inactive
[1]
  IC50: 14.9 nM

## CCOc1ccc(C(=O)Oc2cncc(Cl)c2)cc1
[10]
  remaining at 1 h, up to 100 µM: 50%
[1]
  IC50: 329 nM

## COc1cc(F)ccc1C(=O)Oc1cncc(Cl)c1
[1]
  IC50: 249 nM

## COc1ccc(C(=O)Oc2cncc(Cl)c2)cc1
[10]
  remaining at 1 h, up to 100 µM: 50%
SARS-CoV-2
  EC50: 10.8 nM
[2]
  inhibition: inactive
[1]
  IC50: 164 nM
[4]
  inhibition: 100%
Calu-3 [9]
  Activity: Non-Toxic
[5]
  Stability: Stable

## COc1cccc(C(=O)Oc2cncc(Cl)c2)c1OC
[2]
  inhibition: Active
[1]
  IC50: 84.5 nM
[4]
  inhibition: 100%

## O=C(Oc1cncc(Br)c1)c1ccccc1
[1]
  IC50: 40.5 nM

## O=C(Oc1cncc(Br)c1)c1ccc(Cl)cc1Cl
[3]
  inhibition: 100%
[1]
  IC50: 84.5 nM

## O=C(Oc1cncc(Cl)c1)c1ccc(OCc2ccccc2)cc1F
[2]
  inhibition: inactive
[6]
  Stability: Unstable
[1]
  IC50: 322 nM
[4]
  inhibition: 100%
[5]
  Stability: Stable

## O=C(Oc1cncc(Cl)c1)c1cccs1
[11]
  Ki: 81.1 nM

## O=C(Oc1cncc(Cl)c1)c1ccccc1
[1]
  IC50: 40.4 nM

## N#Cc1ccc(C(=O)Oc2cncc(Cl)c2)c(F)c1
[1]
  IC50: 47 nM

## O=C(Oc1cncc(Cl)c1)c1ccc(Br)cc1F
[2]
  inhibition: inactive
[1]
  IC50: 34.9 nM

## O=C(Oc1cncc(Cl)c1)c1ccc(I)cc1
[2]
  inhibition: inactive
[6]
  Stability: Unstable
[1]
  IC50: 91.2 nM

## O=C(Oc1cncc(Cl)c1)c1c(F)cccc1F
[2]
  inhibition: inactive
[1]
  IC50: 29.2 nM

## O=C(Oc1cncc(Cl)c1)c1ccc(Cl)cc1Cl
[2]
  inhibition: Active
[3]
  inhibition: 100%
[1]
  IC50: 108 nM

## CC(C)(C)[C@H](NC(=O)C(F)(F)F)C(=O)N1C[C@H]2[C@@H]([C@H]1C(=O)N[C@H](C#N)C[C@@H]1CCNC1=O)C2(C)C
[6]
  Stability: Stable
[5]
  Stability: Stable

## O=C(Oc1cncc(Cl)c1)c1cccc(-c2ccccc2)c1
[6]
  Stability: Unstable
[1]
  IC50: 117 nM
[5]
  Stability: Stable

## O=C(Oc1cncc(Cl)c1)c1ccccc1-c1ccccc1
[12]
  inhibition: 6%
[6]
  Stability: Unstable
[1]
  IC50: > 1000 nM
[5]
  Stability: Stable

## O=C(Oc1cncc(Cl)c1)c1cccnc1
[1]
  IC50: 758 nM

## CCOc1ccc(C(=O)Oc2cncc(Br)c2)c(F)c1
[6]
  Stability: Unstable
[1]
  IC50: 107 nM
[4]
  inhibition: 100%

## O=C(Oc1cncc(Cl)c1)c1ccc(Cl)c(Cl)c1
[2]
  inhibition: Active
[1]
  IC50: 96.4 nM

## O=C(Oc1cncc(Cl)c1)c1cc2cc(Cl)ccc2[nH]1
[6]
  Stability: Unstable
[8]
  remaining at 1 h, 100 µM: > 70%

## CCOc1ccc(C(=O)Oc2cncc(Cl)c2)c(F)c1
SARS-CoV-2
  EC50: 2.68 nM
[2]
  inhibition: inactive
[1]
  IC50: 47.4 nM
[4]
  inhibition: 100%
Calu-3 [9]
  Activity: Non-Toxic

## O=C(Oc1cncc(Cl)c1)c1ccc(-c2ccccc2)cc1
[10]
  remaining at 1 h, up to 100 µM: 50%
SARS-CoV-2
  EC50: 58.7 nM
[2]
  inhibition: inactive
Calu-3 [13]
  Activity: Dose-Dependent Effect
[14]
  CC50: 14700 nM
[1]
  IC50: 150 nM
[5]
  Stability: Stable

## COc1cccc(C(=O)Oc2cncc(Br)c2)c1OC
[1]
  IC50: 78.2 nM
[4]
  inhibition: 100%

## CCCCCCCOc1ccc(C(=O)Oc2cncc(Cl)c2)cc1
[10]
  remaining at 1 h, up to 100 µM: 50%
[12]
  inhibition: 8%
[1]
  IC50: > 1000 nM
[5]
  Stability: Stable

## O=C(Oc1cncc(Cl)c1)c1cccc(Cl)c1
[1]
  IC50: 55.1 nM

## O=C(Oc1cncc(Cl)c1)c1ccc(-c2cccnc2)cc1
[1]
  IC50: 137 nM

## O=C(Oc1cncc(Br)c1)c1ccc(Cl)cc1
[1]
  IC50: 95.7 nM

## O=C(Oc1cncc(Br)c1)c1ccc(Cl)cc1F
[3]
  inhibition: 100%
[1]
  IC50: 35.6 nM

— ChEMBL document CHEMBL5584322, “Nonpeptidic Irreversible Inhibitors of SARS-CoV-2 Main Protease with Potent Antiviral Activity” (J Med Chem, 2024)
